The text below walks through data of ChEMBL document CHEMBL1201862, “PubChem BioAssay data set” (2004).

Among the test systems are ACHN; CAKI-1; COLO 205; DU-145; HCT-15; HOP-62; K562; MDA-MB-231; MDA-MB-435; Malme-3M; NCI-H460; NCI-H522; OVCAR-3; RXF 393; SK-MEL-2; SK-MEL-5; SK-OV-3; SNB-19; SW-620; TK-10.
Holding throughout (assay): DTP human tumour cell line panel, 48 h

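Assay format: 96-well plates, 48-hour exposure. At the GI50, growth is halved.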 Calls of active or inactive are those of the source. No stated cut-off is given here; in the data, active = GI50 up to about 1.1 µM and inactive = higher.

On to `COc1cc2[nH]c3c(c2cc1OC)CCN[C@@]31CC[C@@]2(CC3c4c(cc(OC)c(O)c42)CCN3C)C[C@@H]1OC` (stereo not given in full), for which the GI50 in the test with ACHN is 46 µM (inactive); in the test on CAKI-1 it was 35.6 µM (inactive); with COLO 205, 16.6 µM (inactive); in the test on DU-145, > 81.3 µM (inactive); in the test with HCT-15, 30.3 µM; in the test with HOP-62, 62.8 µM (inactive). The GI50 in the test on K562 is 20.7 µM (inactive); in the test with MDA-MB-231 it was 28.1 µM (inactive); with MDA-MB-435, 18.6 µM (inactive); in the test with Malme-3M, 18.5 µM (inactive); with NCI-H460, 39.4 µM (inactive); in the test with NCI-H522, 29.2 µM (inactive). The GI50 is 53.2 µM (inactive) with OVCAR-3; 21 µM (inactive) in the test with RXF 393; 17.8 µM (inactive) with SK-MEL-2; 16.5 µM (inactive) with SK-MEL-5; 73.6 µM (inactive) with SK-OV-3; > 81.1 µM (inactive) with SNB-19. Besides, the GI50 with SW-620 was 32.8 µM (inactive); in the test with TK-10, 29.8 µM (inactive).

Regarding `CCOC1=NC(O)c2cccn2-c2sccc21` (stereo not given), the GI50 was > 100 µM (inactive) in the test with ACHN; > 100 µM (inactive) with CAKI-1; 7.73 µM (inactive) with COLO 205; > 100 µM (inactive) in the test with DU-145; more than 100 µM with HCT-15; > 100 µM (inactive) in the test with HOP-62. In addition, the GI50 in the test with K562 was 57.8 µM (inactive); in the test with MDA-MB-231, > 100 µM (inactive); in the test on MDA-MB-435 it was > 100 µM (inactive); in the test on Malme-3M, > 100 µM (inactive); in the test with NCI-H460, > 100 µM (inactive); with NCI-H522, > 100 µM (inactive). The GI50 in the test with OVCAR-3 is > 100 µM (inactive); in the test on RXF 393 it was > 100 µM (inactive); in the test on SK-MEL-2, > 100 µM (inactive); in the test on SK-MEL-5 it was 96.4 µM (inactive); in the test on SK-OV-3, 93.3 µM (inactive); with SNB-19, > 100 µM (inactive). For the same compound, the GI50 was > 100 µM (inactive) with SW-620 and 82.4 µM (inactive) with TK-10.

As to `N=c1c2c(=S)n(-c3ccccc3)c(=S)n(-c3ccccc3)c2nc(SCCCN2CCCCC2)n1-c1ccccc1`, the GI50 is 1.7 µM (inactive) in the test on ACHN; 1.77 µM (inactive) with CAKI-1; 1.77 µM (inactive) with COLO 205; 1.66 µM (inactive) in the test on DU-145; 1.55 µM in the test with HCT-15; 1.76 µM (inactive) in the test on HOP-62. In addition, the GI50 is 1.48 µM (inactive) with K562; 1.64 µM (inactive) with MDA-MB-231; 1.75 µM (inactive) with MDA-MB-435; 1.73 µM (inactive) in the test on Malme-3M; 1.93 µM (inactive) in the test on NCI-H460; 1.53 µM (inactive) in the test with NCI-H522. Moreover, the GI50 in the test with OVCAR-3 is 1.65 µM (inactive); with RXF 393, 1.64 µM (inactive); in the test with SK-MEL-2, 1.94 µM (inactive); with SK-MEL-5 it was 1.86 µM (inactive); in the test with SK-OV-3 it was 2.26 µM (inactive); in the test on SNB-19, 2.91 µM (inactive). The GI50 in the test on SW-620 was 2.11 µM (inactive); in the test with TK-10, 1.71 µM (inactive).

With `ClCCCSSCCCCl`, the GI50 in the test with ACHN is 43.8 µM (inactive); with CAKI-1, 32.2 µM (inactive); in the test on COLO 205, 32.1 µM (inactive); in the test with DU-145 it was 43.1 µM (inactive); in the test with HCT-15, 22 µM; in the test on HOP-62, 38.7 µM (inactive). Besides, the GI50 in the test on K562 is 25.8 µM (inactive); in the test with MDA-MB-231 it was 35.8 µM (inactive); in the test with MDA-MB-435, 24.3 µM (inactive); in the test on Malme-3M, 32.3 µM (inactive); in the test with NCI-H460, 35.6 µM (inactive); in the test with NCI-H522 it was 25.9 µM (inactive). In addition, the GI50 was 36.6 µM (inactive) in the test with OVCAR-3; 48.9 µM (inactive) in the test with RXF 393; 40.2 µM (inactive) in the test with SK-MEL-2; 37.8 µM (inactive) with SK-MEL-5; 44 µM (inactive) in the test on SK-OV-3; > 100 µM (inactive) in the test on SNB-19. In addition, the GI50 was 27.7 µM (inactive) in the test with SW-620 and > 59.4 µM (inactive) in the test on TK-10.

For `COc1cc(C(=O)NC2CCc3cc(OC)c(OC)c(OC)c3-c3ccc(OC)c(=O)cc32)cc(OC)c1OC` (stereo not given), the GI50 with ACHN was 2.65 µM (inactive); with CAKI-1, 1.15 µM (inactive); in the test with COLO 205 it was 0.0585 µM (active); with DU-145, 0.24 µM (active); with HCT-15 it was 3.53 µM; with HOP-62, 0.471 µM (active). In addition, the GI50 is 0.0403 µM (active) with K562; 0.0306 µM (active) in the test with MDA-MB-231; 0.0292 µM (active) in the test on MDA-MB-435; 0.141 µM (active) in the test with Malme-3M; 0.143 µM (active) in the test on NCI-H460; 0.0234 µM (active) in the test with NCI-H522. In addition, the GI50 was 0.0372 µM (active) with OVCAR-3; 0.466 µM (active) in the test on RXF 393; 0.0935 µM (active) in the test with SK-MEL-2; 0.0553 µM (active) in the test on SK-MEL-5; 0.231 µM (active) in the test on SK-OV-3; 0.138 µM (active) in the test on SNB-19. Besides, the results for the GI50 in the test with SW-620 and in the test on TK-10 were 0.0521 µM (active) and 1.49 µM (inactive), respectively.

One may read the GI50 as the concentration giving 50% growth inhibition.
